Experimental data reported in patent publication US20240390377A1, “COMPOSITION FOR THE PREVENTION OR TREATMENT OF NEURODEGENERATIVE OR MOTOR NEURON DISEASES COMPRISING HALOFUGINONE AS AN ACTIVE INGREDIENT” (CURAMYS CO., LTD., priority 2022, published 2024).

Assays:
[1] = system: G93A mutant SOD1 transgenic mice; assay: ALS animal model disease progression, survival and motor function (rotarod) analysis; assay type: in vivo, mouse
Method: Specifically, all animal experiments were conducted according to the guidelines of the Animal Care Committee of Seoul National University Animal Hospital (IACUC, approval number SNU-200220-1-2). Transgenic mice expressing the human G93A mutant SOD1 gene (B6SJL-Tg(SOD1-G93A) 1 Gur/J) as an ALS animal model were purchased from Jackson Laboratory (Bar Harbor, ME, USA). Male transgenic ALS mice expressing mtSOD1(G93A) H1 strain (Jackson Laboratories, Bar Harbor, ME, USA) were crossed with female mice (B6/SJLF1). The mice were housed under standard conditions with a constant temperature of 22±1° C., relative humidity of 40%, and a 12-hour light-dark cycle, with ad libitum access to food and water. Genotypes were confirmed by polymerase chain reaction (PCR) using primers shown in [Table 1] below, and the number of transgene copies was confirmed. Next, G93A mutant SOD1 transgenic mice were divided into three stages: 60 days old (asymptomatic), 90 days old (early symptom), and 120 days old (late symptom) depending on the time point. A total of 96 mice were used in the experiment. As a control group, non-transgenic mice were used.
(§1) As a control group, non-transgenic mice were injected intraperitoneally (i.p.) with vehicle (DMSO) in the same manner for the same period of time.
Specifically, the clinical condition and body weight of the mice in Example 6 were assessed three times a week starting from day 83 post-birth. Disease onset was defined as tremor of the limbs when the mouse's tail was suspended in the air, reported to be clinically associated with upper motor neuron system [S. Nagano, Y. Fujii, T. Yamamoto, M. Taniyama, K. Fukada, T. Yanagihara, et al. The efficacy of trientine or ascorbate alone compared to that of the combined treatment with these two agents in familial amyotrophic lateral sclerosis model mice Exp Neurol, 179 (2003), pp. 176-180]. The endpoint age was determined as the inability of the animal to right itself within 30 seconds after being placed on a flat surface on its side. At this point, the mouse was considered deceased [C. Zheng, I. Nennesmo, B. Fadeel, J. I. Henter Vascular endothelial growth factor prolongs survival in a transgenic mouse model of ALS Ann Neurol, 56 (2004), pp. 564-567]. The motor function of mice was assessed using a rotarod apparatus (JD-A-07M, JEUNG DO BIO & PLANT CO., LTD). Mice were trained for one week prior to recording. The mice were placed on a rotarod that started at a speed of 4 rpm and accelerated up to 40 rpm over 300 seconds, increasing by 1 rpm approximately every 8.3 seconds. The rotarod test was measured on average three times per measurement, three times per week from 83 days of age, until it was not possible to stay in rotarod for more than 10 seconds three consecutive times.
All data were expressed as the mean and the standard error of the mean (SEM) based on at least three independent experiments and as the ratio of control values. The significance of differences between groups was analyzed by Student's t-test or one-way ANOVA followed by Tukey's post host comparison. A p-value of <0.05 was considered statistically significant. The cumulative probability of symptom onset, rotarod failure, and disease endpoint was analyzed using a Kaplan Meier curve. All analyses were performed using GraphPad Prism. […]

[2] = system: G93A mutant SOD1 transgenic mice; assay: Immunohistochemical analysis of lumbar spinal cord in ALS animal model; assay type: in vivo, mouse
Method: as §1
Specifically, the mice of Example 6 above were perfused with 4% paraformaldehyde (PFA) on 90 and 120 days of age, and the lumbar spinal cord and knee joints were separated. After fixation in 4% PFA for 24 hours, the knee joints were rinsed in running tap water for 24 hours and then incubated at 4° C. with continuous shaking in decalcifying solution (Calci-Clear, HS-104, National Diagnostics). The decalcification solution was replaced daily with fresh solution until the bones were easily penetrated with a needle, indicating completion of the decalcification process. Subsequently, the decalcified knee joints were rinsed in running tap water for 24 hours, and the spinal cord and knee joint samples were treated with 30% sucrose until they sank, followed by freeze protection, followed by successive cuts (14 μm). The lumbar spinal cord and knee joint tissue sections were washed three times with PBS and permeabilized with 0.5% Triton X-100 for 5 minutes. Subsequently, they were blocked with 5% bovine serum albumin (BSA) in 0.3% PBS-T at room temperature for 1 hour. The knee joint tissue sections were incubated with anti-TGF-β1 antibody (1:200; Santa Cruz, cat #sc130348), anti-α-SMA antibody (1:200; Abcam, cat #ab7817), anti-MyoD antibody (1:200; Santa Cruz, cat #sc377460), and anti-Collagen I antibody (1:200; Abcam, cat #ab21286) each, while the lumbar spinal cord sections were incubated with anti-GFAP antibody (1:200; Dako, cat #Z0334), anti-Iba1 antibody (1:200; Wako, cat #016)-20001), anti-TGF-β1 antibody (1:200; Santa Cruz, cat #sc130348), anti-TGF-β1 antibody (1:200; Abcam, cat #ab92486), and anti-IL-1β antibody (1:200; R&D Systems, cat #AF-401-NA) at 4° C. for an additional 24 hours. After washing the sections three times with PBS, they were incubated with Alexa Fluor secondary antibodies in a dark chamber at room temperature for 1 hour. […] Furthermore, analysis was performed using Leica Application Suite X software (Leica Microsystems).
Specifically, halofuginone was administered to G93A mutant SOD1 mice in the same manner as described in <Example 6>, and immunohistochemical analysis was performed in the same manner as described in <Example 8> to identify TGF-β1 and glial cells in the lumbar spinal cord. Considering that TGF-β derived from astrocytes has been reported to accelerate disease in ALS mice, each group's spinal cord was co-stained with TGF-β and GFAP during immunohistochemical analysis. In addition, Iba1 staining was performed to confirm the activity of microglia (FIGS. 9a and 9b).
In addition, to investigate the effect of glial changes in TGF-β and CNS on inflammation, IL-1β, a representative pro-inflammatory cytokine, was simultaneously stained with GFAP during immunohistochemical analysis (FIG. 9c).
In addition, halofuginone was administered to G93A mutant SOD1 mice in the same manner as described in Example 6. After sacrificing the mice at 90 days of age, Iba1 staining was performed to confirm the activation of microglia (FIG. 10a), and motor neurons were observed and counted using the same method as described above (FIG. 10b).

[3] = 250 μg/kg i.p. three times a week from 10 weeks of age, Hal TG vs DMSO TG group (FIG. 6a)

O=C(C[C@H]1NCCC[C@@H]1O)Cn1cnc2cc(Br)c(Cl)cc2c1=O (racemic) [halofuginone]
body weight [1, 3]: no significant difference | time in the rotarod [1, 3]: significantly longer | onset of symptoms ([1]; 250 μg/kg i.p. three times a week, mean±SD, DMSO TG group 94.2±5.7): 113±3.6 | age of reaching rotarod failure ([1]; 250 μg/kg i.p. three times a week, mean±SD, DMSO TG group 116.5±3.1, p<0.001): 124.3±3.5 | endpoint age ([1]; 250 μg/kg i.p. three times a week, mean±SD, DMSO TG group 129.3±7.6): 141.8±9.8 | microglia activity (Iba1) in lumbar spinal cord, compared with changes at 120 days ([2]; 90-day-old mice (FIG. 10a)): similar | microglia (Iba1) in lumbar spinal cord ([2]; 120-day-old mice (FIG. 9a)): continuously increased | increase in TGF-β1 in lumbar spinal cord ([2]; 120-day-old mice (FIG. 9b)): significantly reduced | increase in astrocyte activity (GFAP) in lumbar spinal cord ([2]; 120-day-old mice (FIG. 9b)): significantly reduced | activated inflammation (IL-1β with GFAP activity) in lumbar spinal cord ([2]; 120-day-old mice (FIG. 9c)): suppressed
